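All cell lines were grown in 96-well plates and treated with compound for 48 hours. The concentration for full growth arrest is given as TGI.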
Legend:
Assay in all cases: DTP human tumour cell line panel, 48 h
HCC-2998 colon = system: HCC-2998 colon
COLO 205 colon = system: COLO 205 colon
RPMI-8226 leukemia = system: RPMI-8226 leukemia
SF-539 CNS = system: SF-539 CNS
SW-620 colon = system: SW-620 colon
SNB-19 CNS = system: SNB-19 CNS
HT29 colon = system: HT29 colon
NCI-H226 lung = system: NCI-H226 lung
HOP-62 NSCLC = system: HOP-62 NSCLC
SR leukemia = system: SR leukemia

`COc1cc2c(cc1OC)C1Cc3cc(OC)c(OC)cc3C(C2)O1` was tested, and the TGI (HCC-2998 colon) was > 100 µM, the TGI (COLO 205 colon) was > 100 µM and the TGI (RPMI-8226 leukemia) was > 100 µM. The TGI (SF-539 CNS) was > 100 µM, the TGI (SW-620 colon) was > 100 µM and the TGI (SNB-19 CNS) was > 100 µM. For the same compound, the TGI (HT29 colon) was > 100 µM, the TGI (NCI-H226 lung) was > 100 µM and the TGI (HOP-62 NSCLC) was > 100 µM.

With `COc1ccccc1/C=C/c1c(N)ncnc1Nc1cccc(Cl)c1` the TGI (HCC-2998 colon) was > 100 µM, the TGI (SR leukemia) was > 100 µM and the TGI (RPMI-8226 leukemia) was 31.2 µM. For the same compound, the TGI (SF-539 CNS) was 35.6 µM, the TGI (SW-620 colon) was > 100 µM and the TGI (SNB-19 CNS) was 47.1 µM. It also gave a TGI (HT29 colon) of 87.2 µM, a TGI (NCI-H226 lung) of 49 µM and a TGI (HOP-62 NSCLC) of 40 µM.

Compound `N#Cc1c(-c2cccc(Cl)c2)cc(-c2ccc(Cl)cc2)nc1N` has a TGI (SR leukemia) of 40 µM, a TGI (COLO 205 colon) of 28.6 µM and a TGI (RPMI-8226 leukemia) of 48 µM. For the same compound, the TGI (SF-539 CNS) was 34.3 µM, the TGI (SW-620 colon) was 34.2 µM and the TGI (SNB-19 CNS) was 25.5 µM. It also gave a TGI (HT29 colon) of 44 µM, a TGI (NCI-H226 lung) of 34.8 µM and a TGI (HOP-62 NSCLC) of 36.3 µM.

`Cc1ccc2ccc3ccc(C)nc3c2n1` was tested, and the TGI (HCC-2998 colon) was > 100 µM, the TGI (SR leukemia) was > 100 µM and the TGI (COLO 205 colon) was > 100 µM. For the same compound, the TGI (RPMI-8226 leukemia) was > 100 µM, the TGI (SF-539 CNS) was > 100 µM and the TGI (SW-620 colon) was > 100 µM. The TGI (SNB-19 CNS) was > 100 µM, the TGI (HT29 colon) was > 100 µM and the TGI (NCI-H226 lung) was > 100 µM. For the same compound, the TGI (HOP-62 NSCLC) was > 100 µM.

`COc1c(O)c(O)c2c(c1O)C(=O)c1cc(C)cc(O)c1C2=O` was tested, and the TGI (HCC-2998 colon) was > 100 µM, the TGI (SR leukemia) was > 100 µM and the TGI (COLO 205 colon) was 93.2 µM. For the same compound, the TGI (RPMI-8226 leukemia) was > 100 µM, the TGI (SF-539 CNS) was > 100 µM and the TGI (SW-620 colon) was > 100 µM. For the same compound, the TGI (SNB-19 CNS) was > 100 µM, the TGI (HT29 colon) was > 85.4 µM and the TGI (NCI-H226 lung) was > 93.5 µM. For the same compound, the TGI (HOP-62 NSCLC) was > 100 µM.

`Cc1c2cc[n+](C)cc2c(C)c2c1[nH]c1ccc(Cl)cc12` was tested, and the TGI (HCC-2998 colon) was 13.8 µM, the TGI (SR leukemia) was > 78.1 µM and the TGI (COLO 205 colon) was 10.9 µM. The TGI (RPMI-8226 leukemia) was > 95.6 µM, the TGI (SF-539 CNS) was 2.32 µM and the TGI (SW-620 colon) was 19.4 µM. The TGI (SNB-19 CNS) was 1.21 µM, the TGI (HT29 colon) was 44.9 µM and the TGI (NCI-H226 lung) was 4.57 µM. It also gave a TGI (HOP-62 NSCLC) of 6.95 µM.

For `C[C@@H](CO)C1=CC(C#C[Si](C)(C)C)N(C(=O)Oc2ccccc2)c2ccccc21` (stereo partly specified), the TGI (HCC-2998 colon) was 29.9 µM, the TGI (SR leukemia) was > 100 µM and the TGI (COLO 205 colon) was > 100 µM. The TGI (RPMI-8226 leukemia) was 90.4 µM, the TGI (SF-539 CNS) was 41.6 µM and the TGI (SW-620 colon) was > 100 µM. For the same compound, the TGI (SNB-19 CNS) was 82 µM, the TGI (HT29 colon) was 35.2 µM and the TGI (NCI-H226 lung) was 44 µM. For the same compound, the TGI (HOP-62 NSCLC) was 30 µM.

For `CN=C(N)/N=C(\N)Nc1cc2ccccc2c2ccccc12`, the TGI (HCC-2998 colon) was 6.78 µM, the TGI (SR leukemia) was 47.8 µM and the TGI (COLO 205 colon) was 28.2 µM. For the same compound, the TGI (RPMI-8226 leukemia) was 43.3 µM, the TGI (SF-539 CNS) was 29.4 µM and the TGI (SW-620 colon) was 34 µM. For the same compound, the TGI (SNB-19 CNS) was 30.9 µM, the TGI (HT29 colon) was 32.9 µM and the TGI (NCI-H226 lung) was 37.4 µM. It also gave a TGI (HOP-62 NSCLC) of 33.4 µM.

With `CCOC(=O)C(=O)Nc1c(CC)cccc1C(C)CC` (stereo unspecified) the TGI (HCC-2998 colon) was > 100 µM, the TGI (SR leukemia) was > 100 µM and the TGI (COLO 205 colon) was > 100 µM. The TGI (RPMI-8226 leukemia) was > 100 µM, the TGI (SF-539 CNS) was > 100 µM and the TGI (SW-620 colon) was > 100 µM. For the same compound, the TGI (SNB-19 CNS) was > 100 µM, the TGI (HT29 colon) was > 100 µM and the TGI (NCI-H226 lung) was > 100 µM. For the same compound, the TGI (HOP-62 NSCLC) was > 100 µM.

Compound `CSc1ccc(-c2cc(-c3nc4ccccc4[nH]3)nc(N)c2C#N)cc1` has a TGI (HCC-2998 colon) of 33.1 µM, a TGI (SR leukemia) of 65.8 µM and a TGI (COLO 205 colon) of 34.7 µM. The TGI (RPMI-8226 leukemia) was 77.2 µM, the TGI (SF-539 CNS) was 86 µM and the TGI (SW-620 colon) was > 100 µM. For the same compound, the TGI (SNB-19 CNS) was > 100 µM, the TGI (HT29 colon) was 56.7 µM and the TGI (NCI-H226 lung) was 79.5 µM. The TGI (HOP-62 NSCLC) was 42.1 µM.

For `c1ccc(CCN2CCOCC2)nc1`, the TGI (HCC-2998 colon) was > 100 µM, the TGI (SR leukemia) was > 100 µM and the TGI (COLO 205 colon) was > 100 µM. The TGI (RPMI-8226 leukemia) was > 100 µM, the TGI (SW-620 colon) was > 100 µM and the TGI (SNB-19 CNS) was > 100 µM. For the same compound, the TGI (HT29 colon) was > 100 µM, the TGI (NCI-H226 lung) was > 100 µM and the TGI (HOP-62 NSCLC) was > 100 µM.

Source: PubChem BioAssay (NCI)
